The numbers were not newly measured in patent publication US20230310447A1, “METHODS OF TREATING AGE-RELATED COGNITIVE DECLINE” (Woolsey Pharmaceuticals, Inc., priority 2020, published 2023), which cites them from elsewhere.

In one data set the test system is memory in aging rats. Particulars: eighteen-month old rats; 0.1875 or 0.3750 mg per day, single daily injection; radial maze.
The conditions of data set [1]: 1-hydroxy (M3) metabolite, in vivo; Shibuya 2001.

Take hydroxyfasudil: in the data set on memory in aging rats, the working memory result was “improvements in working memory”. Regarding `O=S(=O)(c1cccc2c(O)nccc12)N1CCCNCC1` [hydroxyfasudil], the half-life entry in data set [1] was “about 8 hours”.
